Reference: patent publication US20250360069A1, “SUNSCREEN COMPOSITION FOR LACTOBACILLUS AND S. EPIDERMIDIS PROTECTION ON SKIN” (DSM IP Assets B.V., priority 2022, published 2025)

Key:
[1] = tested on: Staphylococcus epidermidis ATCC 12228; experiment: In vitro UV model: bacterial survival upon UV irradiation (96-well, MPN count); type: cell-based; settings: sample 20% v/v, UV 15 SED (150 mJ/cm^2 UVA+UVB), after 4 h; for S. epidermidis survival: compared to untreated and non-irradiated control
Procedure: (§1) The microbial strains used in this study are listed below and their cultures are reconstituted according to the direction of the supplier collection center of the reference strain, CRBIP (Institut Pasteur Collection, France) or ATCC (American Type Culture Collection, USA): • Lactobacillus crispatus CIP 103604 • Staphylococcus epidermidis ATCC 12228 The 96-well plate was filled with the culture media (140 μL) and a calibrated inoculum (20 μL) of each bacterial strain was added to reach […] colony forming units per milliliter (cfu/mL) final concentration. After contamination, the sample was added (40 μL; 20% v/v) in triplicate and was thoroughly mixed to ensure a homogeneous distribution. Then, the plate was submitted to UV stress through an UV irradiator system (BioSun, Vilber Lourmat, France) according to the UV doses presented Table 1 below. The specific UV dose selected was between 10 and 49% survival of the microbial population. For the microbial population counts, aliquots of the contaminated samples of L. crispatus and S. epidermidis were serially diluted (4 decimal dilutions followed by 8 binary dilutions, in triplicate) in culture media on 96-wells plates with triphenyltetrazolium. Then, the plates were incubated at 37° C.±2,5° C. during 48 h taking into account the respiratory type of each strain. After 48 h at the optimal growing conditions, the last dilution showing a pink color (triphenyltetrazolium) or turbidity indicated the contamination rate and allowed the determination of the decrease rate of microbial population (most probable number MPN method). Controls performed during this experiment were the culture medium with bacteria incubated without UV stress. The microbial population counts were expressed in cfu/mL and were the average of experiment done in triplicate. The use level of the single UV filter and combinations in the test formulations was calculated to obtain a predicted in vitro SPF value of 5.75+/−0.15 and 23.45+/−0.65, respectively (Table 2). The UV filters were mixed in the two oils, Tegosoft XC (55%) and Miglyol 829 Eco (ad100%) and the emulsifier Tween 80 (5%). The effect of selected UV irradiation conditions on the survival of microbial population of L. crispatus and S. epidermidis in the presence of the tested samples 1-10 at 20% v/v, was compared with the corresponding strain in the absence of samples 1-10 and without exposure to UV irradiation (control). The results after the 4-hour incubation were compared to the population of bacteria incubated without UV stress (determination of bacterial population survival) and were expressed in percentage of survival. The relative percentage of protection (%) was calculated from the difference between the survival percentages of samples and vehicle control (with UV irradiation) and divided to the survival percentage of the vehicle control. Consequently, the survival of each microbial population and the relative protection by the UV filter(s) were calculated and are summarized in the Table 2.

[2] = tested on: Lactobacillus crispatus CIP 103604; experiment: as above; type: cell-based; settings: sample 20% v/v, UV 50 SED (500 mJ/cm^2 UVA+UVB), after 4 h; for L. crispatus survival: compared to untreated and non-irradiated control
Procedure: as §1

SMILES	S. epidermidis relative protection by the UV filter(s) vs. vehicle control [1]	S. epidermidis survival [1] [%]	L. crispatus relative protection by the UV filter(s) vs. vehicle control [2]	L. crispatus survival [2] [%]
CCCCC(CC)COC(=O)C(C#N)=C(c1ccccc1)c1ccccc1 (stereo not shown) [Inv. 1, Octocrylene]	(+59) %	63	(+300) %	50
CCCCC(CC)COC(=O)c1ccc(Nc2nc(Nc3ccc(C(=O)OCC(CC)CCCC)cc3)nc(Nc3ccc(C(=O)OCC(CC)CCCC)cc3)n2)cc1 (stereo not shown) [Inv. 3, Ethylhexyl Triazone]	(+59) %	63	(+100) %	25
CCCCC(CC)COC(=O)c1ccccc1O (stereo not shown) [Ref. 1, Ethylhexyl Salicylate]	(+100) %	79	(+59) %	20
CCCCC(CC)COc1ccc(-c2nc(-c3ccc(OC)cc3)nc(-c3ccc(OCC(CC)CCCC)cc3O)n2)c(O)c1 (stereo not shown) [Ref. 2, Bis-Ethylhexyloxyphenol Methoxyphenyl Triazine]	(+100) %	79	(+59) %	20
